SMILES strings stand for the structures.

Sequence of Serum paraoxonase/arylesterase 1 (P27169 whole entry): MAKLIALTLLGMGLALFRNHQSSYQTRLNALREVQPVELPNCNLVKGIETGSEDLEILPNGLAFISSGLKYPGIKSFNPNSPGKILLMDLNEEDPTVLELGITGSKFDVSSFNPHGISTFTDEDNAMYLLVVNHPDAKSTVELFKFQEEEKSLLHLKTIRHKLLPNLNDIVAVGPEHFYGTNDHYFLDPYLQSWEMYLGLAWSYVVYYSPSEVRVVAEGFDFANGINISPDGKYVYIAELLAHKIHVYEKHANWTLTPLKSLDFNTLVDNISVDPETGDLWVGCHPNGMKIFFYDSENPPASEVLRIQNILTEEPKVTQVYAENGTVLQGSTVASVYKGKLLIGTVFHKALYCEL

In this test the target is Serum paraoxonase/arylesterase 1 (Homo sapiens, UniProt P27169). Briefly: In Vitro Inhibtion Assay. The protocol:
The inhibitory effects of six sulfonamide derivatives was examined against the purified enzyme hPON1 and were tested in a triplicate experiment in five different concentrations (0.15, 0.3, 0.45, 0.6, and 0.75 mM).
Broadly, the IC50 is the concentration at which inhibition is half-maximal. A lower IC50 goes with inhibition by little substance. Broadly, the Ki is a dissociation constant, usually derived from enzyme kinetics or from competition with a known ligand. In the case of `Nc1nnc(S(N)(=O)=O)s1` [1,3,4-thiadiazole-2-sulfonamide 15], the midpoint of inhibition, the IC50, lay at 1240 µM and the Ki came out at 2010 µM.

Molecule `NS(=O)(=O)c1cc(C(=O)O)c(NCc2ccco2)cc1Cl` [4-chloro-2-[(furan-2-ylmethyl)amino]-5-sulfamoylbenzoic acid] registered an IC50 of 360 µM and a Ki of 702 µM.

The molecule `CC(=O)Nc1nnc(S(N)(=O)=O)s1` [Acetazolamide, AAZ] gave an IC50 of 800 µM and a Ki of 743 µM.

`CC(=O)NS(=O)(=O)c1ccc(N)cc1` [Cetamide]: the midpoint of inhibition, the IC50, lay at 180 µM and the Ki worked out at 86 µM.

As for `NCc1ccc(S(N)(=O)=O)cc1` [aromatic sulfonamide compound 6], half-maximal inhibition (IC50) was put at 190 µM and affinity was put at a Ki of 340 µM.
